# Literature values, collected in patent publication US10882883B2, “Derivatives of amphotericin B” (Sfunga Therapeutics, Inc., priority 2015, dated 2021).
# Columns and labels:
# yeast = details: in vitro studies; WO 2014/165676
# [1] = Wilcock et al., J Am Chem Soc 135: 8488-91 (2013)
# [2] = Wilcock et al., J Am Chem Soc 135: 8488-91 (2013); remark: listed apart in the source
smiles,measurement,setting,value
CC1C=CC=CC=CC=CC=CC=CC=CC(OC2CC(N)C(O)C(C)O2)CC2OC(O)(CC(O)CC(O)C(O)CCC(O)CC(O)CC(=O)OC(C)C(C)C1O)CC(O)C2C(=O)O (stereo not drawn) [C2′deOAmB],toxicity to yeast,yeast,toxic to yeast
same,binding to cholesterol,[1],no binding to cholesterol
same,ergosterol-binding ability,[2],retains ergosterol-binding ability
